Consider 9 compounds from patent US12209252B2, “Transduction buffer” (Koninklijke Nederlandse Akademie van Wetenschappen, priority 2015, dated 2025).

Series [1] has as its system KBM7 cells carrying an out-of-frame tdTomato reporter. Kind of series: Effect of carbohydrate supplements on Cas9/sgRNA transduction (tdTomato reporter). It counts as cell-based. Particulars: carbohydrate 0.8% w/v, 40 minutes, 327 mM NaCl, 200 mM GABA, read two days after. The protocol:
(§1) KBM7 cells carrying an out-of-frame tdTomato reporter were transduced for 40 minutes with recombinant Cas9 protein and sgRNA targeting the out-of-frame region in the tdTomato reporter. Transductions were carried out in 1× iTOP transduction buffer, supplemented with 327 mM NaCl and 200 mM GABA. Indicated carbohydrates were added at 0.8% w/v final concentration. Two days after transduction, tdTomato fluorescence was determined by flow cytometry analysis.
as §1, with “The effect of various carbohydrates on transduction efficiency was tested in the iTOP buffer. KBM7” for “KBM7”, “carbohydrates (sorbitol, lactulose, sucrose, trehalose and myo-inositol)” for “carbohydrates”, “analysis. Higher levels of tdTomato fluorescence were indicative of greater transduction efficiency.” for “analysis.”

For series [2] the following is noted: 700 mOsm/Kg, non-salt compound alone; previously tested (WO2015/028969); cited from earlier work.
The test system of a further series is MEFs. As to the kind of experiment: BrdU incorporation 24 hrs after beta-lactamase transduction. As to conditions: see FIGS. 6A-6D. It counts as cell-based, mouse. For orientation: Dividing cells build labelled thymidine or BrdU into new DNA.
The test system of series [3] is sodium-hydrogen antiporter (Nhe) proteins. Kind of series: Inhibition of protein transduction by Na+/H+ exchange inhibitors. Format: cell-based. From the text:
Without wishing to be bound by theory, the inventors hypothesise that activation of such Nhe transporters leads to activation of the macropinocytosis pathway, which is the first step in the transduction process. Thus, in some embodiments, the salt is any salt able to bind to and/or activate a sodium/hydrogen (Na+/H+) transporter, such as an Nhe transporter, for example an Nhe1 transporter. Nhe1 is a ubiquitous membrane-bound enzyme involved in volume- and pH-regulation of vertebrate cells.

Protocol for MEFs: Third column: Relative β-lactamase protein transduction activity; Fourth column: Relative BrdU incorporation 24 hrs after β-lactamase transduction. MEFs were transduced for 3 hours with 1 μM β-lactamase protein at a NaCl adjusted osmolality of 700 mOsm/Kg in transduction buffer containing 30 mM of Glycerol and 15 mM of Glycine and 25 mM of the indicated transduction compounds. β-lactamase incorporation of the reference compound (NDSB201, #01) was set at 100%. Open circles indicate relative BrdU incorporation by the transduced cells. BrdU incorporation of untransduced cells was set at 100% and BrdU incorporation of mitomycin C-treated cells was set at 0%.

Consider `OC[C@H]1O[C@@H](O[C@@H]2[C@@H](CO)OC(O)(CO)[C@H]2O)[C@H](O)[C@@H](O)[C@H]1O` (mixture of isomers) [lactulose], for which the “transduction efficiency (tdTomato fluorescence, in words)” value (“transduction efficiency” for short) in series [1] is “closely followed”. Besides, in series [2], the “induction of protein transduction” value was “failed to induce protein transduction”. Take `NCCCC(=O)O` [#20]: in the series on MEFs, the “cell viability / proliferation / survival (in words)” value is reported as “particularly good cell survival rates”. `CN(C)c1nc(N)c(C(=O)N=C(N)N)nc1Cl` [DMA]: the “inhibition of protein transduction” value in series [3] is recorded as “strongly inhibited”. Still for that read-out and setting: the value for `CCN(c1nc(N)c(C(=O)NC(=N)N)nc1Cl)C(C)C` [EIPA] was “strongly inhibited”.

Regarding `OC[C@@H](O)[C@@H](O)[C@H](O)[C@H](O)CO` [mannitol], the “induction of protein transduction” value in series [2] is “failed to induce protein transduction”. Turning to `O[C@H]1[C@H](O)[C@@H](O)[C@H](O)[C@@H](O)[C@H]1O` [myo-inositol], in series [1], the “transduction efficiency” value is listed as “closely followed”. For `OC[C@@H](O)[C@@H](O)[C@H](O)[C@@H](O)CO` [sorbitol], the “transduction efficiency” value in series [1] was “greatest improvement”. Also, the “induction of protein transduction” value in series [2] is listed as “failed to induce protein transduction”. Consider `OC[C@H]1O[C@@](CO)(O[C@H]2O[C@H](CO)[C@@H](O)[C@H](O)[C@H]2O)[C@@H](O)[C@@H]1O` [sucrose], for which, in series [1], the “transduction efficiency” value is on record as “improve transduction efficiency”. Further, the “induction of protein transduction” value in series [2] was “failed to induce protein transduction”. Take `OC[C@H]1O[C@H](O[C@H]2O[C@H](CO)[C@@H](O)[C@H](O)[C@H]2O)[C@H](O)[C@@H](O)[C@@H]1O` [trehalose]: in series [1], the “transduction efficiency” value was “greatest improvement”.
